Read-outs that look alike come from different tables or passages of the source.
Legend:
intestinal glycosidases = conditions: background statement; cited from earlier work
GBA2 = target: T1, GBA2 (Homo sapiens, UniProt Q9HCG7); experiment: GBA2 activity, membrane fraction from Gaucher spleen, 4-MU-β-glucoside substrate; format: biochemical;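 also: Read-out is fluorimetric quantification of released 4-MU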
T1 construct: measured using a membrane fraction obtained from Gaucher spleen; from tissue; host or cells: membrane fraction of Gaucher spleen, pre-treated with conduritol B-epoxide
T1 sequence (Q9HCG7 1-927): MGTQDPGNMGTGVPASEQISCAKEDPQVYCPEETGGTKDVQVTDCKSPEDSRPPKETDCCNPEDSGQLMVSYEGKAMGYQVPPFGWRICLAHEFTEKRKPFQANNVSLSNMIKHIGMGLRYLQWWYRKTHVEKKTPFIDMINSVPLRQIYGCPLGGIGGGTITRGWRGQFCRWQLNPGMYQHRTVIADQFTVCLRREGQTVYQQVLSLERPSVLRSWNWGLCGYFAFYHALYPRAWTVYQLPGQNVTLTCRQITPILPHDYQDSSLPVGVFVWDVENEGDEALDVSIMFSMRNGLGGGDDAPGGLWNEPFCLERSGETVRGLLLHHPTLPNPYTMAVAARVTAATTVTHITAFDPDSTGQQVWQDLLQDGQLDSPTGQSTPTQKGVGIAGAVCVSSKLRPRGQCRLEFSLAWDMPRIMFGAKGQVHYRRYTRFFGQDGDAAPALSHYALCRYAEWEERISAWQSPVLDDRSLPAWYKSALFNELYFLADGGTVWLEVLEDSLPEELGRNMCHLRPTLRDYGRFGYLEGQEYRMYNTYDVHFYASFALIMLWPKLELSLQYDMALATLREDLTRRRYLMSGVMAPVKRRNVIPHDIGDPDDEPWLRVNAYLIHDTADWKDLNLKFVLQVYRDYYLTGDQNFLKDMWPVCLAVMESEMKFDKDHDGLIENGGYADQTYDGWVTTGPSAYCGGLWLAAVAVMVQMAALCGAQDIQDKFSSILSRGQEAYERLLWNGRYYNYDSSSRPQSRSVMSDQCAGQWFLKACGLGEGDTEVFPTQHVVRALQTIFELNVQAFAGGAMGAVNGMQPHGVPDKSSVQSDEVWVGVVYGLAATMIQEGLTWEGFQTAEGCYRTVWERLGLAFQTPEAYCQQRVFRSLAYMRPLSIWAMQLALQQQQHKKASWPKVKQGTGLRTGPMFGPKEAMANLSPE

GBA1 = target: T2, GBA1 (Homo sapiens, UniProt P04062, R534H); experiment: GBA1 activity, recombinant human enzyme (Cerezyme), 4-MU-β-glucoside substrate; format: biochemical;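 also: enzyme activity read out as fluorescence of the 4-MU released from the substrate, measured on a fluorimeter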
T2 construct: purchased Sanofi (Cerezyme)
T2 sequence (P04062 40-536 R534H): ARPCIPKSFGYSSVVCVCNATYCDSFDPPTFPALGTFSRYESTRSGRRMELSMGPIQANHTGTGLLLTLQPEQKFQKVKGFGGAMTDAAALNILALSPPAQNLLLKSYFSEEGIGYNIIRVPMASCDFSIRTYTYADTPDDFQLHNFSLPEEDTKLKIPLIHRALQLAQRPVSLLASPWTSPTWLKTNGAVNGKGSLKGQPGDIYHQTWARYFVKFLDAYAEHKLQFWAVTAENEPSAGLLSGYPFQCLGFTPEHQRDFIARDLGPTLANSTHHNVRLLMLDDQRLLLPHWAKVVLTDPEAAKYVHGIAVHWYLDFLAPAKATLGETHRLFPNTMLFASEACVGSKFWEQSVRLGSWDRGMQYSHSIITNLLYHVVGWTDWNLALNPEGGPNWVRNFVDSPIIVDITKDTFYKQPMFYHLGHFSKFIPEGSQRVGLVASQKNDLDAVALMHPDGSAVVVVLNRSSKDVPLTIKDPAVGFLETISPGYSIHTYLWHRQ

[1] = target: T3, glucosylceramide synthase (GCS) (Mus musculus, UniProt O88693); experiment: GCS activity in living macrophage  cells (C6-NBD lipid, TLC readout); format: cell-based; conditions: read-out: GCS [nM] (IC50)
T3 construct: IC50 values for GCS activity were measured using living cells; endogenous in cells
T3 sequence (O88693 1-394): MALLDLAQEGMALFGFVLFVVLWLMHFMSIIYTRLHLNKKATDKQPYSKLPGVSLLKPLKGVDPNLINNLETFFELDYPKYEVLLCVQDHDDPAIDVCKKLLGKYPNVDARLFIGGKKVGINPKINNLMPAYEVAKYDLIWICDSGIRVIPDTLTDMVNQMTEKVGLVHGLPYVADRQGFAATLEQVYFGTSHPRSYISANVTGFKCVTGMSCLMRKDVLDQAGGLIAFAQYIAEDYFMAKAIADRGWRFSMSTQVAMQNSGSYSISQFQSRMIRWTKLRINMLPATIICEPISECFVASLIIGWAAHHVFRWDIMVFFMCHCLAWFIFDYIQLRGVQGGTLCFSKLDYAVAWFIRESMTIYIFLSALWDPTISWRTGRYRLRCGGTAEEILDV

[2] = L-ido configuration series, Example 4
[3] = D-gluco configuration series, Example 3

Row | SMILES | IC50 (GBA2; [2]) [nM] | IC50 (GBA1) [nM] | IC50 [1] [nM] | IC50 (GBA2; [3]) [nM] | IC50 [1, 3] [nM] | IC50 [1, 2] [nM] | inhibitory activity against the intestinal glycosidases (intestinal glycosidases)
1 | OC[C@H]1[C@@H](O)[C@H](O)[C@@H](O)CN1CCCCCOCC12CC3CC(CC(C3)C1)C2 [Compound 2, (adamantanemethyloxypentyl)-L-ido-deoxynojirimycin] | – | – | – | – | – | – | little to no inhibitory activity
2 | Cc1cccc(-c2ccc(COCCCCCN3C[C@H](O)[C@@H](O)[C@H](O)[C@H]3CO)cc2)c1 [Compound 35] | – | 250 | 100 | 2 | – | – | –
3 | OC[C@@H]1[C@@H](O)[C@H](O)[C@@H](O)CN1CCCCCOCc1ccc(-c2ccncc2)cc1 [Compound 18] | – | 2000 | – | 10 | 2000 | – | –
4 | OC[C@H]1[C@@H](O)[C@H](O)[C@@H](O)CN1CCCCCOCc1ccc(-c2ccccc2)c(F)c1 [Compound 47] | 0.6 | 6000 | 2.5 | – | – | – | –

Further lines, with some results ahead:

Row | IC50 (GBA2; [2]) [nM] | IC50 (GBA1) [nM] | IC50 [1] [nM] | IC50 (GBA2; [3]) [nM] | IC50 [1, 3] [nM] | IC50 [1, 2] [nM] | SMILES | inhibitory activity against the intestinal glycosidases (intestinal glycosidases)
5 | 2 | 12500 | 15 | – | – | – | OC[C@H]1[C@@H](O)[C@H](O)[C@@H](O)CN1CCCC(F)(F)COCc1ccc(-c2ccccc2)cc1 [Compound 43] | –
6 | – | 250 | 100 | 3 | – | – | Cc1ccc(-c2ccc(COCCCCCN3C[C@H](O)[C@@H](O)[C@H](O)[C@H]3CO)cc2)cc1 [Compound 36] | –
7 | – | 300 | 75 | 2 | – | – | OC[C@@H]1[C@@H](O)[C@H](O)[C@@H](O)CN1CCCCCOCc1cccc(-c2ccccc2)c1 [Compound 13] | –
8 | 1 | 10000 | – | – | – | 40 | C[C@@H](OCCCCCN1C[C@H](O)[C@@H](O)[C@H](O)[C@@H]1CO)c1ccc(-c2ccccc2)cc1 [Compound 39] | –

Source: patent US10590082B2, “N-(5-((aryl or heteroaryl)methyloxy)pentyl)-substituted iminosugars as inhibitors of glucosylceramide synthase” (Academisch Medisch Centrum, priority 2014, dated 2020)
